What was measured:
[1] = system: human tongue squamous carcinoma cells (SAS cells); test: Animal experiment: SAS tumor-transplanted nude mice, tumor growth delay with X-ray irradiation; type: in vivo; settings: for enhancement ratio (ER): tumor volume 500 mm^3
Source text: Nude mice were assigned to four groups (control group; single use group of the present radiosensitizer administration; single use group of irradiation; and combined use group of irradiation and the present radiosensitizer administration; 4 mice per group). 1.0×10^6 human tongue squamous carcinoma cells (SAS cells) were suspended in PBS(−), and the suspension was transplanted subcutaneously into a right thigh of each mouse. After 10 to 14 days, when tumor volume became a desired value in a range of about 50 mm^3 to about 100 mm^3, each mouse was subjected to treatment according to each group. As a radiosensitizer, 3-O-(6-deoxy-6-sulfo-α-D-glucopyranosyl)-1-O-stearoyl-glycerol sodium salt (hereinafter, also referred to as “α-SQMG C18:0”) was used. Regarding the single use group of irradiation, X-ray was irradiated two times (at the time of treatment initiation (day 0) and on day 6 after the treatment initiation) at a dose of 8 Gy. Regarding the single use group of α-SQMG C18:0 administration, the sensitizer was intraperitoneally administered two times (day 0 and day 6) at a concentration of 1 mg/kg. Regarding the combined use group, each mouse of the group was treated with both of irradiation and α-SQMG C18:0 administration. Regarding the control group, neither irradiation nor α-SQMG C18:0 administration was performed. Thereafter, a short diameter and a long diameter of a tumor were measured with a micrometer caliper over a period of 16 to 23 days. Tumor volume was calculated by the following equation, and the tumor growth delaying effect was compared.
Equation for calculating tumor volume:
tumor volume (mm^3)=(short diameter)^2×(long diameter)×0.5
(§1) The same experiment as that of Experimental Example 1-1 was performed except that irradiation was performed at the time of treatment initiation (day 0) and on day 4 after the treatment initiation, administration of α-SQMG C18:0 was performed only on day 0, and measurement of tumor size was performed over a period of 26 days.
In order to express numerically this synergistic effect, ER (enhancement ratio) was calculated by the following equation. ER is a value defined by the literature (Int., J. Radiation Oncology Bio. Phys. Vol. 55, No. 3, pp. 713-723 (2003)), and ER will be explained below based on the definition.
ER=NGD÷TGD in the case of X-ray irradiation alone
In the equation, “TGD (tumor growth delay)” indicates delay of days necessary for tumor volume to reach a predetermined size in each test group as compared with a control group. That is, this is expressed by the following equation. In the Examples of the present invention, the predetermined size of tumor volume is 500 mm^3, unless otherwise indicated.
TGD=(number of days necessary for tumor volume to reach 500 mm^3 in test group)−(number of days necessary for tumor volume to reach 500 mm^3 in control group)
“NGD (normalized growth delay)” is expressed by the following equation.
NGD=(TGD in the case of combined use)−(TGD in the case of drug administration alone)
According to the aforementioned literature, it can be said that the anti-tumor effect is synergistic, when an enhancement ratio (ER) obtained by the above equation exceeds 1.0.
as §1, with “3” for “4”, “initiation,” for “initiation, administration of”, “administered once a” for “performed only on”, “from day 0 to day 4,” for “0,”, “35” for “26”
In the present Experimental Example, an experiment was performed in the same manner as in the above Experimental Example except that irradiation was performed at a dose of 2 Gy per fraction everyday from the time of treatment initiation (day 0) to day 4, and administration of α-SQMG C18:0 was performed everyday from day 0 to day 4. Details of the experiment will be described below.
Four nude mice (eight weeks old) were randomly assigned to each of four groups. […]

SAS cells = test: Colony assay on SAS cells; type: cell-based, human; settings: same colony assay as Exp. Ex. 2-1 and 2-2
[2] = system: human uterine cervical cancer cells (HeLa cells); test: Animal experiment: HeLa tumor-transplanted nude mice, tumor growth delay with X-ray irradiation; type: in vivo; settings: Exp. Ex. 1-6: X-ray 8 Gy day 0 and day 4
Experimental: A human cancer-transplanted mouse was prepared in the same manner as in Experimental Example 1-5 except that human uterine cervical cancer cells (HeLa cells) were transplanted into a nude mouse. When tumor volume reached 100 mm^3, α-SQMG C18:0 administration and irradiation treatment were performed. In a single use group of irradiation, each mouse was irradiated with X-ray at a dose of 8 Gy two times on day 0 and day 4. In a single use group of α-SQMG C18:0 administration, α-SQMG C18:0 was intraperitoneally administered at a concentration of 1 mg/kg at a total of 10 times consisting of two courses of 5 times, that is, once a day from day 0 to day 4 and once a day from day 12 to day 16. In the combined use group, each mouse of the group was treated with both of irradiation and α-SQMG C18:0 administration. In the control group, neither irradiation nor α-SQMG C18:0 administration was performed. Thereafter, tumor volume was measured over a period of 35 days in the same manner as the above Experimental Example 1-1.

[3] = Exp. Ex. 1-2: X-ray 8 Gy day 0 and day 4, 1 mg/kg i.p. day 0 only
[4] = Exp. Ex. 1-3: X-ray 8 Gy day 0 and day 3, 1 mg/kg i.p. once a day day 0 to 4

`CCCCCCCCCCCCCCCCCC(=O)OCC(O)CO[C@H]1O[C@H](CS(=O)(=O)[O-])[C@@H](O)[C@H](O)[C@H]1O.[Na+]` (stereo partly drawn) [α-SQMG C18:0, 3-O-(6-deoxy-6-sulfo-α-D-glucopyranosyl)-1-O-stearoyl-glycerol sodium salt] was tested, and the “anti-tumor effect (tumor volume), combined use with irradiation” value (shortened to “anti-tumor effect (tumor volume)”) ([1]; Exp. Ex. 1-1: X-ray 8 Gy day 0 and day 6, 1 mg/kg i.p. day 0 and day 6) was “anti-tumor effect far exceeding the anti-tumor effect attained by irradiation”, the “anti-tumor effect (tumor volume)” value [1, 3] was “anti-tumor effect far exceeding the anti-tumor effect attained by irradiation” and the “enhancement ratio (ER)” value [1, 3] was 2.0. The “anti-tumor effect (tumor volume)” value [1, 4] was “anti-tumor effect far exceeding the anti-tumor effect attained by irradiation”, the “enhancement ratio (ER)” value [1, 4] was 3.0 and the “anti-tumor effect (tumor volume)” value ([1]; Exp. Ex. 1-4: X-ray 2 Gy once a day day 0 to 4 (total 10 Gy), 1 mg/kg i.p. once a day day 0 to 4) was “anti-tumor effect exceeding the anti-tumor effect attained by irradiation alone”. The “enhancement ratio (ER)” value ([1]; Exp. Ex. 1-4: X-ray 2 Gy once a day day 0 to 4, 1 mg/kg i.p. once a day day 0 to 4) was 1.8, the “cell proliferation suppressing effect on SAS cells” value (SAS cells) was “did not exert a cell proliferation suppressing effect” and the “enhancement ratio (ER)” value ([2]; 1 mg/kg i.p. day 0 to 4 and day 12 to 16, tumor volume 500 mm^3) was 2.71. For the same compound, the “anti-tumor effect (tumor volume)” value ([2]; 1 mg/kg i.p. once a day day 0 to 4 and day 12 to 16) was “anti-tumor effect far exceeding the anti-tumor effect attained by irradiation”.
